From patent US20160051514A1, “METHODS FOR TREATMENT OF CARDIOMYOPATHY” (THE BRIGHAM AND WOMEN'S HOSPITAL, INC., priority 2013, published 2016)
“Also recorded” adds a separate entry of the source.

Tests used:
[1] = system: 2057del2 plakoglobin zebrafish; test: Survival and cardiac physiology in the zebrafish model of ACM; format: in vivo; settings: data not shown
Method: In-house software (implemented in MATLAB™) was used to determine heart rate, while measurements of ventricular long and short axes in both diastole and systole were obtained using ImageJ™. Cardiac output was measured as diastolic minus systolic ventricular volume multiplied by heart rate, as outlined by Shin et al (30). Fractional shortening was calculated as end-diastolic diameter minus end-systolic diameter divided by end-diastolic diameter.
Survival studies: Embryos were kept in petri dishes until 7 dpf and then transferred to nursery tanks with larval food. Observations for phenotype and survival were recorded for several weeks. Data are presented as a Kaplan-Meier curve using Graphpad™ software.

[2] = system: neonatal rat ventricular myocytes expressing 2057del2 plakoglobin; test: Immunofluorescence of intercalated disk proteins in neonatal rat ventricular myocytes; format: cell-based; settings: cells expressing 2057del2 plakoglobin; 5 μM, 24 hr
Method: Neonatal rat ventricular myocyte isolation and culture, stretch protocols: Primary cardiac myocyte cultures were prepared from ventricles of 1-day-old Wistar rat pups (Charles River) as previously described.^9 Cells were plated on collagen-coated plastic chamber slides at a density of […] cells/cm^2 and grown for 4 days prior to experimentation. In selected experiments, monolayers grown on collagen--coated silicone membranes were subjected to linear pulsatile stretch using a custom-designed apparatus as described in previous studies.'° Cells were stretched to 110% of resting length at a. frequency of 3 Hz for 1-4 hr in serum-free medium. In other experiments cultures were incubated with reagents including pifitlirin A (5 μM, 1 hr) and SB216763 (5 μM, 24 hr) prior to experimentation. All protocols were approved by the Institutional Animal Care and Use Committee (IACUC).
Viral transfection: A recombinant adenoviral construct expressing 2057del2-plakoglobin was created with the ViraPower Adenoviral Expression system (Invitrogen) using the pAd/CMV/V5-DEST vector through LR clonase-mediated recombination. The V5-tag was used to identify the mutant protein and distinguish it from wildtype plakoglobin. Two days post-plating, monolayers were exposed to viral solution (1:130 dilution in serum-free media, 37° C.) for 1 hr after which viral solution was replaced with complete medium in the presence or absence of reagents.
Immunofluoresence staining and microscopy in cultured cells: Cultures were rinsed in serum-free medium and fixed in 4% paraformaldehyde at room temperature for 5 min or in acetone at −20° C. for 10 min. Fixed cells were immunostained with mouse monoclonal anti-plakoglobin (Sigma), anti-N-cadhcrin (Sigma), anti-Cx43 (Millipore), anti-desmopla.kin (Fitzgerald), anti-SAP97 (Santa Cruz Biotechnology) antibodies and anti-Nav1.5 (kindly provided by Dr. Hugues Abriel, University of Bern, Switzerland) antibodies. Specific immunoreactive signal was detected by laser scanning confocal microscopy as previously described.”
Neonatal rat ventricular myocyte isolation, culture, stretch protocols: Primary cardiac myocyte cultures were prepared from ventricles of 1-day-old Wistar rat pups (Charles River) as previously described (36). Cells were plated on collagen-coated plastic chamber slides at a density of 2.4×10^5 cells/cm2 and grown for 4 days prior to experimentation. In selected experiments, monolayers grown on collagen-coated silicone membranes were subjected to linear pulsatile stretch using a custom-designed apparatus as described in previous studies (35). Cells were stretched to 110% of resting length at a frequency of 3 Hz for 1-4 hr in serum-free medium. In other experiments cultures were incubated with reagents including pifithrin A (5 μM, 1 hr) and SB216763 (0.1-10 μM for 12 or 24 hr) prior to experimentation. Vehicle controls (DMSO) were included in all experiments.
Viral transfection: A recombinant adenoviral construct expressing 2057del2 plakoglobin was created with the ViraPower Adenoviral Expression™ system (Invitrogen) using the pAd/CMV/V5-DEST vector through LR clonase-mediated recombination. The V5-tag was used to identify the mutant protein and distinguish it from wildtype plakoglobin. Two days post-plating, monolayers were exposed to viral solution (1:130 dilution in serum-free media, 37° C.) for 1 hr after which viral solution was replaced with complete medium in the presence or absence of reagents. Immunofluorescence staining and microscopy in cultured cells: Cultures were rinsed in serum-free medium and fixed in 4% paraformaldehyde at 25° C. for 5 min or in acetone at −20° C. for 10 min. Fixed cells were immunostained with mouse monoclonal anti-plakoglobin (Sigma), anti-N-cadherin (Sigma), anti-Cx43 (Millipore), anti-desmoplakin (Fitzgerald), anti-SAP97 (Santa Cruz Biotechnology) antibodies and anti-Nav1.5 antibodies (rabbit polyclonal).

[3] = system: neonatal rat ventricular myocytes expressing 2057del2 plakoglobin; test: TUNEL assay of myocyte apoptosis; format: cell-based
Excerpt: TUNEL assay: Apoptotic cells in cultures were detected by terminal deoxynucleotidyl transferase-mediated biotinylated UTP nick end-labeling (TUNEL) assay using the ApopTag™ Fluorescein Direct in Situ Apoptosis Detection Kit (Millipore) as previously described.^9 Nuclei were stained with DAPI, and TUNEL-positive and total nuclei were counted under a laser scanning confocal microscope in 5 fields per chamber.
TUNEL assay: Apoptotic cells in cultures were detected by terminal deoxynucleotidyl transferase-mediated biotinylated UTP nick end-labeling (TUNEL) assay using the ApopTag Fluorescein Direct in Situ Apoptosis Detection KitTM (Millipore) according to the manufacturer's instructions. Nuclei were stained with DAPI; TUNEL-positive and total nuclei were counted under a laser scanning confocal microscope in 5 fields per chamber or silicone membrane in stretch experiments.

## [Cl-].[Li+] [LiC1, reference compound]
[1]
  Effectiveness of other GSK-3β inhibitors in attenuating the mutant phenotype compared with SB216763: none of which were as effective

## O=C(Nc1ccc([N+](=O)[O-])cc1Cl)c1cc(Cl)ccc1O [niclosamide, reference compound]
[2]
  Subcellular distribution of plakoglobin immunoreactive signal (junctional vs intracellular/nuclear): increased nuclear localization of plakoglobin

## Cc1ccc(C(=O)Cn2c3c(sc2=N)CCCC3)cc1 [pifithrin-A, reference compound]
[3]; 4 hr of stretch, vs stretch without inhibitor
  Apoptosis in transfected myocytes exposed to stretch: significantly reduced apoptosis
[3]; pifithrin-A 5 μM
  Apoptosis in cells expressing 2057del2 plakoglobin: could be prevented

## Cn1cc(C2=C(c3coc4ccccc34)C(=O)NC2=O)c2cc(Br)ccc21 [BIP 135, reference compound]
[1]
  Effectiveness of other GSK-3β inhibitors in attenuating the mutant phenotype compared with SB216763: none of which were as effective

## Cc1c[nH]c(-c2cnc(NCCNc3ccc(C#N)cn3)nc2-c2ccc(Cl)cc2Cl)n1 [CHIR99021, reference compound]
[2]
  Subcellular distribution of plakoglobin immunoreactive signal (junctional vs intracellular/nuclear): intensified plakoglobin signal in nuclei
[1]
  Effectiveness of other GSK-3β inhibitors in attenuating the mutant phenotype compared with SB216763: do not exhibit the therapeutic benefits; also recorded: none of which were as effective

## O=C1Nc2cc(Br)ccc2/C1=C1/Nc2ccccc2/C1=N\O [BIO, 6-bromoindirubin-3′-oxime, reference compound]
[1]
  Effectiveness of other GSK-3β inhibitors in attenuating the mutant phenotype compared with SB216763: do not exhibit the therapeutic benefits; also recorded: none of which were as effective
